Source: US7309710B2, “Crystals” (Astellas Pharma Inc., priority 2002, dated 2007)

Tests used:
[1] = system: Ca2+ release-activated Ca2+ channel (CRACC); assay: CRACC inhibitory activity (in vitro test as described in patent reference 1); type: cell-based
Source text: (§1) 4,6-Diemthyl-4′-[3,5-bis(trifluoromethyl)-1H-pyrazol-1-yl]nicotinanilide is excellent in terms of the CRACC inhibitory activity, the inhibition selectivity over VOCC, and the activity of suppressing IL-2 production. […] Therefore, a pharmaceutical product containing the compound is useful as an agent for preventing or treating allergic, inflammatory or autoimmune diseases in which CRACC and IL-2 participates. Herein, the allergic, inflammatory or autoimmune diseases include, for example, bronchial asthma, psoriasis, atopic diseases including atopic dermatitis, inflammatory bowel diseases including Crohn disease, digestive ulcer, nephritis, hepatitis, pancreatitis, collagenosis, rheumatoid arthritis, osteoarthritis, and rejection on transplantation. The usefulness on these diseases can be confirmed at the in vitro tests of the CRACC inhibitory activity and the activity of suppressing IL-2 production as described in the patent reference 1 and at various tests using, for example, antigen-induced airway eosinophilia model as a typical disease model of bronchial asthma, and murine collagen-induced arthritis model. 4,6-Dimethyl-4′-[3,5-bis (trifluoromethyl)-1H-pyrazol-1-yl]nicotinanilide may be produced by the method described in the patent reference 1.

[2] = system: voltage-operated Ca2+ channel (VOCC); assay: Inhibition selectivity for CRACC over VOCC; type: cell-based
Source text: A pyrazole derivative having a high inhibition selectivity for CRACC over voltage-operated Ca^2+ channel (abbreviated as VOCC hereinafter) involved in intracellular calcium regulation of excitatory cells such as smooth muscle cells and nerve cells and having an inhibitory activity against IL-2 production has been reported (for example, patent reference 1).
4,6-Diemthyl-4′-[3,5-bis(trifluoromethyl)-1H-pyrazol-1-yl]nicotinanilide is excellent in terms of the CRACC inhibitory activity, the inhibition selectivity over VOCC, and the activity of suppressing IL-2 production. […] Therefore, a pharmaceutical product containing the compound is useful as an agent for preventing or treating allergic, inflammatory or autoimmune diseases in which CRACC and IL-2 participates. Herein, the allergic, inflammatory or autoimmune diseases include, for example, bronchial asthma, psoriasis, atopic diseases including atopic dermatitis, inflammatory bowel diseases including Crohn disease, digestive ulcer, nephritis, hepatitis, pancreatitis, collagenosis, rheumatoid arthritis, osteoarthritis, and rejection on transplantation. […]

IL-2 production = assay: Activity of suppressing IL-2 production; type: cell-based
Source text: as §1

[3] = system: TNCB-induced Contact Hypersensitivity; assay: Suppression of TNCB-induced Contact Hypersensitivity; type: in vivo; details: test described in patent reference 1
Source text: as §1

[4] = system: collagen-induced arthritis; assay: Murine collagen-induced arthritis model; type: in vivo; details: test described in patent reference 1
Source text: as §1

[5] = system: antigen-induced airway eosinophilia; assay: Antigen-induced airway eosinophilia (rat); type: in vivo; details: test described in patent reference 1
Source text: as §1

[6] = Stability test of the crystals (assay value by HPLC, internal standard method); type: physicochemical; details: for Stability test: assay value by HPLC (internal standard method, peak area): 40° C. under light-resistant; for Stability of the crystal: at 5 to 60° C. for at least three months
Method: Because both the α type and β type crystals are stable at 5 to 60° C. for at least three months and can be highly purified by recrystallization, these crystals may be used as raw materials for producing pharmaceutical products. Particularly, these crystals are preferable as raw materials for producing solid pharmaceutical preparations.
(The values express the assay values determined by an internal standard method on the basis of peak area obtained by HPLC)

Stability test: assay value by HPLC (internal standard method, peak area) ([6]; After 1 month) [%] | Stability test: assay value by HPLC (internal standard method, peak area) ([6]; After 3 months) [%] | Stability of the crystal [6] | SMILES | CRACC inhibitory activity [1] | inhibition selectivity over VOCC [2] | activity of suppressing IL-2 production (IL-2 production) | effect on the suppression of TNCB-induced Contact Hypersensitivity [3] | activity of suppressing the arthritis in murine collagen-induced arthritis model [4] | activity of suppressing of antigen-induced airway eosinophilia [5]
 |  |  | Cc1cc(C)c(C(=O)Nc2ccc(-n3nc(C(F)(F)F)cc3C(F)(F)F)cc2)cn1 [4,6-dimethyl-4′-[3,5-bis(trifluoromethyl)-1H-pyrazol-1-yl]nicotinanilide] | excellent | excellent | excellent | very good activities | very good activities | very good activities
100.7 | 99.2 | stable | Cc1cc(C)c(C(=O)Nc2ccc(-n3nc(C(F)(F)F)cc3C(F)(F)F)cc2)cn1 [α type crystal, 4,6-dimethyl-4′-[3,5-bis(trifluoromethyl)-1H-pyrazol-1-yl]nicotinanilide] |  |  |  |  |  | 
99.7 | 100.7 | stable | Cc1cc(C)c(C(=O)Nc2ccc(-n3nc(C(F)(F)F)cc3C(F)(F)F)cc2)cn1 [β type crystal, 4,6-dimethyl-4′-[3,5-bis(trifluoromethyl)-1H-pyrazol-1-yl]nicotinanilide] |  |  |  |  |  | 
